Experimental data published in patent publication US11434227B2, “Broad spectrum antibacterial activity of novel bisbenzimidazoles targeting topoisomerase IA and the synergistic composition of bisbenzimidazole with efflux pump inhibitors against pathogenic bacteria” (Jawaharlal Nehru University (JNU), priority 2016, dated 2022).
Values after ≈ are worked out from the molar mass of the structure shown.

Key:
[1] = target: E. coli Topoisomerase IA (Escherichia coli, UniProt P06612); assay: Topoisomerase IA cleavage and religation assay; type: biochemical; conditions: biochemical assays and computational studies
Protocol: Compounds at different concentrations were added to DNA cleavage reaction mixtures (20 μl) containing 50 mM TrisHCl, pH 7.5, 2 mM MgCl2 0.2 mM DTT, 0.5 mM EDTA, 30 μg/ml BSA, 25 μg/ml of pHOT1 having specific site for DNA, 40 units of E. coli Topoisomerase IA and ligands was incubated at 37° C. for 30 min. The reactions was then terminated by adding 1% SDS and 150 μg/m Proteinase K, and incubated further for 1 h at 37° C. The DNA samples was electrophoresed in 1% agarose gel in 0.5×TBE. Ethidium bromide at a finial concentration of 0.5 μg/ml was included in the gel to resolve slowly migrating nicked product (cleavable complex) from the supercoiled DNA molecules.

[2] = tested on: E. coli 360^R; assay: Susceptibility (MIC, PAE, MBC), broth microdilution; conditions: Escherichia coli
Protocol: (§1) MICs were determined by the broth microdilution method according to CLSI methods (Clinical and Laboratory Standards Institute, 2005). Inoculants were incubated at 37° C. on cation adjusted Mueller Hinton (MH) Broth for 18 to 24 h. Compound were dissolved in media to 10 doubling dilutions from 128 to 0.125 μg/mL. All the bacterial strains were grown in 96 well plate with low evaporation lid (Falcon, Becton Dickinson) in presence of derivatives of benzimidazoles at 0.125, 0.25, 0.5, 1, 2, 4, 8, 16, 32, 64, 128, 256 μg/mL concentrations. […] Plates were read by Tecan Micro-plate Reader at 600 nm.

[3] = tested on: K. planticola (MTCC 2272); assay: HN12b in combination with efflux pump inhibitors (CB method, FICI)
Protocol: (§2) 96-well microtiter plates containing MIC25 concentrations of the Efflux pump inhibitor (CCCP, PAβN) and HN12b antimicrobial drugs alone and in CB combination were used. The MICs of the individual drugs HN12b, PAβN and CCCP (0.25 to 128 μg/ml) and of the combinations were determined using the broth microdilution technique as recommended by the CLSI. Briefly, the broth microdilution plates were inoculated with each test organism to yield the appropriate density (10^5 CFU/ml) in 100 μl Mueller-Hinton broth (MHB) and incubated for 24 h at 37° C. in ambient air. One well with no antibiotic was used as a positive growth control on each plate. Plates were read for visual turbidity, and results were recorded after 24 h of incubation at 37° C. in ambient air by using a magnifying mirror reader, as turbidity in wells indicated growth of the microorganism. The MIC was determined as the well in the microtiter plate with the lowest drug concentration at which there was no visible growth. […] MICAB was defined as the MIC of drug A in the presence of drug B; MICBA was defined as the MIC of drug B in the presence of drug A.
(§3) The fractional inhibitory concentration index (FICI) was calculated for each antibiotic in each combination by using the following formula: FICA+FICB=FICI, where FICA equals the MIC of drug A in combination divided by the MIC of drug A alone and FICB equals the MIC of drug B in combination divided by the MIC of drug B alone. The FICIs were interpreted as follows: FICI of ≤0.5 will correspond to synergy; FICI of >0.5 to ≤1 will correspond to additivity; FICI of >1 to ≤4 will correspond to no interaction (indifference), and FICI of >4 will correspond antagonism.

[4] = tested on: E. coli 151^R; assay: Susceptibility (MIC, PAE, MBC), broth microdilution; conditions: Escherichia coli
Protocol: as §1

[5] = tested on: A. baumannii (AB387); assay: HN12b in combination with efflux pump inhibitors (CB method, FICI); conditions: for FICI / Interpretation: A. baumannii (AB387)
Protocol: as §2, §3

[6] = tested on: Escherichia coli 385; assay: Susceptibility (MIC50/MIC90), broth microdilution
Protocol: as §1

[7] = tested on: E. coli K12 mutant ΔompF; assay: Susceptibility of E. coli K12 and mutants (MIC90); conditions: Escherichia coli
Protocol: as §1

[8] = tested on: Enterococcus sp. (2105); assay: HN12b in combination with efflux pump inhibitors (CB method, FICI)
Protocol: as §2, §3

[9] = tested on: E. coli 72^R; assay: Susceptibility (MIC, PAE, MBC), broth microdilution; conditions: Escherichia coli
Protocol: as §1

[10] = target: E. coli Topoisomerase IA (EcTopoIA) (Escherichia coli, UniProt P06612); assay: Topoisomerase IA relaxation inhibition assay; type: biochemical; conditions: compared to DMA
Protocol: E. coli Topoisomerase IA (EcTopoIA) purified protein was diluted in buffer (10 mM Tris-HCl pH 8.0, 50 mM NaCl, 0.1 mg/mL gelatin, 0.5 mM MgCl2). Compounds were added in concentrations 1, 5, 10, 25 and 50 μM to 10 ng of the diluted enzyme present in 20 μL reaction volume. 500 ng of supercoiled pHOT plasmid DNA purified by Qiagen Maxiprep Kit was added. The mixture was incubated at 37° C. for 30 min before termination of the reaction and analysed by agarose gel electrophoresis without Ethidium bromide. The gels were then stained with ethidium bromide which was further photographed over UV transilluminator and analysed by performing densitometry.
Mechanism of inhibition was determined by performing relaxation assay in three different conditions. First, relaxation assay was done with increasing concentrations of Mg^2+ from 0 to 50 mM to find out optimum concentration of Mg^2+ required by EcTopo 1A. Second, relaxation assay was performed with increasing concentration of Mg^2+ in the presence of 5 μM compound and third, reaction we have increased the concentration of compound from 5 to 100 μM in a buffer with 25 mM of MgCl2.

[11] = tested on: E. coli K12 mutant ΔompC; assay: Susceptibility of E. coli K12 and mutants (MIC90); conditions: Escherichia coli
Protocol: as §1

[12] = tested on: Pseudomonas aeruginosa (MTCC 366); assay: Susceptibility (MIC50/MIC90), broth microdilution; conditions: MTCC366
Protocol: as §1

[13] = tested on: E. coli K12 mutant ΔemrA; assay: Susceptibility of E. coli K12 and mutants (MIC90); conditions: Escherichia coli
Protocol: as §1

[14] = tested on: E. coli DH5α; assay: Susceptibility (MIC, PAE, MBC), broth microdilution; conditions: Escherichia coli
Protocol: as §1

[15] = tested on: K. planticola (1164); assay: HN12b in combination with efflux pump inhibitors (CB method, FICI)
Protocol: as §2, §3

[16] = tested on: E. coli 59^R; assay: Susceptibility (MIC, PAE, MBC), broth microdilution; conditions: Escherichia coli
Protocol: as §1

[17] = tested on: Enterococcus sp.(1150); assay: Susceptibility (MIC50/MIC90), broth microdilution
Protocol: as §1

[18] = tested on: E. coli K12; assay: Susceptibility of E. coli K12 and mutants (MIC90); conditions: Escherichia coli
Protocol: as §1

[19] = tested on: E. coli 401^R; assay: Susceptibility (MIC, PAE, MBC), broth microdilution; conditions: Escherichia coli
Protocol: as §1

[20] = Synergistic effect of CCCP and HN12b in neutropenic thigh infection model; type: in vivo, Balb/c mice; conditions: HN12b 3 mg/kg bw + CCCP 3 mg/kg bw
[21] = K. planticola (MTCC 2272), HN12b + CCCP
[22] = Enterococcus sp. (2105), HN12b + CCCP
[23] = K. planticola (1164), HN12b + CCCP

Chain of E. coli Topoisomerase IA (EcTopoIA) (P06612 whole entry): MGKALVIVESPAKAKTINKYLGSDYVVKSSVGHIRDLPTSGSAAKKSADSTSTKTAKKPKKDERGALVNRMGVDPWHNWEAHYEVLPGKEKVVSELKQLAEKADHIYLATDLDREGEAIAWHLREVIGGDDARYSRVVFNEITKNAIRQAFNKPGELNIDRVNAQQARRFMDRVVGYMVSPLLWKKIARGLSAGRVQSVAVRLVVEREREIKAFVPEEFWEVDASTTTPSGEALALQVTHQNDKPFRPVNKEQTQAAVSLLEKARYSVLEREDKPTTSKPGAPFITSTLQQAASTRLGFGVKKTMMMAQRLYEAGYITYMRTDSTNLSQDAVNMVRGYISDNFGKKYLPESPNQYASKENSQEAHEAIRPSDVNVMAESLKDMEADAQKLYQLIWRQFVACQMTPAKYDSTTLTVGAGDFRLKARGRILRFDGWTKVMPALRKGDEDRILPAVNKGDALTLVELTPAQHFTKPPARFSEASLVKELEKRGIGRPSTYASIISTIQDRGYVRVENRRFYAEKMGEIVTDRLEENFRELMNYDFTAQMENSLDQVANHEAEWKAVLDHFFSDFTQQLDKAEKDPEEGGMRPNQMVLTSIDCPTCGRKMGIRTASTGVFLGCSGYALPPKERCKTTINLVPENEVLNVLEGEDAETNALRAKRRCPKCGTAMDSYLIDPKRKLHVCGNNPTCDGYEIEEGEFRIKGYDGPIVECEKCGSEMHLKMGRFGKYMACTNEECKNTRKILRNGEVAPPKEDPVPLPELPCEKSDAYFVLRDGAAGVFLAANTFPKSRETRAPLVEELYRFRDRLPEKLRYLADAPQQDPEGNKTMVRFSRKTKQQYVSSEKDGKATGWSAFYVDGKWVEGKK
Chain of E. coli Topoisomerase IA (P06612 whole entry): as above

In the case of `CCCN1CCN(c2nc3ccc(-c4nc5ccccc5[nH]4)cc3[nH]2)CC1` [HN12b, 2′-(4-propylpiperazine-1-yl)-1H, 3′H-2,5′-bibenzimidazole], the “mechanism of inhibition (Mg^2+ chelation)” value [1] is reported as “chelates Mg^2+ required for, the religation of DNA”, the MBC [2] is reported as 2 µg/mL (≈ 5.55 µM) and the MIC50 [2] is reported as 1 µg/mL (≈ 2.77 µM). For the same compound, the MIC90 [2] was 1.6 µg/mL (≈ 4.44 µM), the FICI [3, 21] was 0.5 and the Interpretation [3, 21] was “Synergy (FICI of ≤0.5 will correspond to synergy)”. The FICI ([3]; K. planticola (MTCC 2272), HN12b + PAβN) was 1, the MIC90 ([3]; Klebsiella planticola, MTCC2272) was > 128 µg/mL and the MBC [4] was 2 µg/mL (≈ 5.55 µM). The MIC50 [4] was 1 µg/mL (≈ 2.77 µM), the MIC90 [4] was 1.7 µg/mL (≈ 4.72 µM) and the FICI ([5]; HN12b + CCCP) was 0.2. The Interpretation ([5]; HN12b + CCCP) was “Synergy (FICI of ≤0.5 will correspond to synergy)”, the FICI ([5]; HN12b + PAβN) was 0.2 and the Interpretation ([5]; HN12b + PAβN) was “Synergy (FICI of ≤0.5 will correspond to synergy)”. For the same compound, the MIC90 ([5]; Acinetobacter baumannii) was 8 µg/mL, the MIC50 [6] was 1.5 µg/mL (≈ 4.16 µM) and the MIC90 [6] was 3.3 µg/mL (≈ 9.15 µM). The MIC90 [7] was 5.4 µg/mL (≈ 15 µM), the MIC90 ([8]; Enterococcus) was 128 µg/mL and the FICI [8, 22] was 0.5. The Interpretation [8, 22] was “Synergy (FICI of ≤0.5 will correspond to synergy)”, the FICI ([8]; Enterococcus sp. (2105), HN12b + PAβN) was 1 and the MIC90 [9] was 3.1 µg/mL (≈ 8.6 µM). The “Topoisomerase Inhibition activity” value [10] was “improved Topoisomerase Inhibition activity as compared to DMA”, the MIC90 [11] was 3.8 µg/mL (≈ 10.5 µM) and the MIC50 [12] was 19 µg/mL (≈ 52.7 µM). For the same compound, the MIC90 [12] was 128 µg/mL (≈ 355 µM), the MIC90 [13] was 5.8 µg/mL (≈ 16.1 µM) and the MBC [14] was 0.8 µg/mL (≈ 2.22 µM). The MIC50 [14] was 0.2 µg/mL (≈ 0.555 µM), the MIC90 [14] was 0.2 µg/mL (≈ 0.555 µM) and the FICI [15, 23] was 0.5. The Interpretation [15, 23] was “Synergy (FICI of ≤0.5 will correspond to synergy)”, the FICI ([15]; K. planticola (1164), HN12b + PAβN) was 1 and the MIC90 ([15]; Klebsiella planticola) was 128 µg/mL. For the same compound, the MBC [16] was 4 µg/mL (≈ 11.1 µM), the MIC50 [16] was 2 µg/mL (≈ 5.55 µM) and the MIC90 [16] was 3.4 µg/mL (≈ 9.43 µM). For the same compound, the MIC50 [17] was 0.25 µg/mL (≈ 0.694 µM), the MIC90 [17] was 13.2 µg/mL (≈ 36.8 µM) and the MIC90 [18] was 8 µg/mL (≈ 22.2 µM). For the same compound, the MBC [19] was 2 µg/mL (≈ 5.55 µM), the MIC50 [19] was 1 µg/mL (≈ 2.77 µM) and the MIC90 [19] was 1.7 µg/mL (≈ 4.72 µM). The “in vivo efficacy in combination with CCCP” value [20] was “further improves”.
